Consider 30 compounds from ChEMBL document CHEMBL1138729, “Aminoimidazo[1,2-a]pyridines as a new structural class of cyclin-dependent kinase inhibitors. Part 1: Design, synthesis, and biological evaluation” (Bioorg Med Chem Lett, 2004).

Experiment [1] addresses Cyclin-dependent kinase 2 (Homo sapiens, UniProt P24941). The experiment can be described thus: Inhibitory activity against Cyclin-dependent kinase 2 (CDK2).
Experiment [2] deals with Cyclin-dependent kinase 4 (Homo sapiens, UniProt P11802). Briefly: Inhibitory activity against Cyclin-dependent kinase 4 (CDK4).
Chain of Cyclin-dependent kinase 4 (P11802 whole entry): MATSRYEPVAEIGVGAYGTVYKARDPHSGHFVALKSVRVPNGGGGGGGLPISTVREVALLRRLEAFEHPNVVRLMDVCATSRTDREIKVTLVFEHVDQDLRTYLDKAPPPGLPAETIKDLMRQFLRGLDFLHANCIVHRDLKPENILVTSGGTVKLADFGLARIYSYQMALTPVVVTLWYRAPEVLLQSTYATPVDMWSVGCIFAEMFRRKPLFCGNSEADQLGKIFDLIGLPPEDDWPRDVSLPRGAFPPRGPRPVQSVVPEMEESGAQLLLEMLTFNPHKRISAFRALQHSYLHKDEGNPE
A short description of experiment [3]: Inhibitory activity against Cyclin-dependent kinase 1 (CDK1).

Molecules are shown by their SMILES.

Take `Nc1nc2ccc(C(=O)c3c(F)cccc3F)cn2c1C(=O)c1ccncc1`: the IC50 (in general, the concentration that inhibits the measured activity by half) in experiment [1] came out at 2540 nM.

`N#C/C=C(\c1ccc2nc(N)c(C(=O)c3c(F)cccc3F)n2c1)c1c(F)cccc1F` displayed an IC50 in experiment [1] of 896 nM. This IC50 is about 2.8-fold lower than that of the compound before.

In the case of `COc1ccccc1C(=O)c1ccc2nc(N)c(C(=O)c3c(F)cccc3F)n2c1`, the IC50 in experiment [1] was 603 nM. This IC50 and that of the compound before are within 1.5-fold of each other.

As to `N#C/C=C(/c1ccc2nc(N)c(C(=O)c3c(F)cccc3F)n2c1)c1c(F)cccc1F`, the IC50 amounted to 160 nM in experiment [1], 1550 nM in experiment [2] and 53 nM in experiment [3].

`Nc1nc2ccc(C(=O)c3ccccc3)cn2c1C(=O)c1c(F)cccc1F` registered a 50% inhibitory concentration (IC50) in experiment [1] of 1930 nM.

On to `Nc1nc2ccc(/C(=C/c3nn[nH]n3)c3c(F)cccc3F)cn2c1C(=O)c1c(F)cccc1F`, for which the IC50 came out at 1690 nM in experiment [1], 1700 nM in experiment [2] and 96 nM in experiment [3].

In experiment [1], `Cc1ccccc1C(=O)c1ccc2nc(N)c(C(=O)c3c(F)cccc3F)n2c1` came in with an IC50 of 1290 nM.

Consider `NC(=O)c1cc(F)c(C(=O)c2c(N)nc3ccc(C(=O)c4c(Cl)cccc4Cl)cn23)c(F)c1`, for which the values for the IC50 in experiment [1], in experiment [2] and in experiment [3] were 46 nM, 1140 nM and 154 nM, respectively.

As for `COc1cc(F)c(C(=O)c2c(N)nc3ccc(C(=O)c4c(F)cccc4F)cn23)c(F)c1`, the figures for the IC50 in experiment [1], in experiment [2] and in experiment [3] were 91 nM, 838 nM and 132 nM, respectively.

`C=C(c1ccc2nc(N)c(C(=O)c3c(F)cccc3F)n2c1)c1c(F)cccc1F`: the figures for the IC50 in experiment [1], in experiment [2] and in experiment [3] were 63 nM, 1030 nM and 93 nM, respectively.

Consider `Nc1nc2ccc(C(=O)c3c(F)cccc3Cl)cn2c1C(=O)c1c(F)cccc1F`, for which the figures for the IC50 in experiment [1], in experiment [2] and in experiment [3] were 33 nM, 810 nM and 104 nM, respectively.

With `Nc1nc2ccc(C(=O)c3c(F)cccc3F)cn2c1C(=O)c1c(Cl)cccc1Cl`, the IC50 is 121 nM in experiment [1], 359 nM in experiment [2] and 209 nM in experiment [3].

Turning to `Nc1nc2ccc(C(=O)c3c(F)cccc3F)cn2c1C(=O)c1ccccc1`, the IC50 in experiment [2] was found to be 5050 nM.

With `COc1cc(F)c(C(=S)c2c(N)nc3ccc(C(=O)c4c(F)cccc4F)cn23)c(F)c1`, the results for the IC50 in experiment [1], in experiment [2] and in experiment [3] were 29 nM, 464 nM and 143 nM, respectively.

The compound `Nc1nc2ccc(C(=O)c3ccccc3Cl)cn2c1C(=O)c1c(F)cccc1F` yielded an IC50 in experiment [1] of 428 nM.

Turning to `Nc1nc2ccc(C(=O)c3c(Cl)cccc3Cl)cn2c1C(=O)c1c(F)cccc1F`, the IC50 in experiment [1] was 53 nM.

`Nc1nc2ccc(C(=O)c3c(F)cccc3F)cn2c1C(=O)c1c(F)cccc1F`: the IC50 in experiment [1] came to 122 nM; in experiment [2], 1080 nM; in experiment [3], 57 nM.

Turning to `Nc1nc2ccc(C(=O)c3c(F)cccc3F)cn2c1C(=O)c1cccs1`, in experiment [1], the IC50 is 547 nM.

On to `CN(C)CCOc1cc(F)c(C(=O)c2c(N)nc3ccc(C(=O)c4c(Cl)cccc4Cl)cn23)c(F)c1`, for which the IC50 in experiment [1] stood at 984 nM.

Consider `Nc1nc2ccc(C(=O)c3c(F)cccc3F)cn2c1C(=S)c1ccccc1`, for which the IC50 in experiment [1] is 214 nM; in experiment [2], 1890 nM; in experiment [3] it was 165 nM.

Take `COc1cccc(OC)c1C(=S)c1c(N)nc2ccc(C(=O)c3c(F)cccc3F)cn12`: the IC50 in experiment [1] was 462 nM.

As for `Nc1nc2ccc(C(=O)c3ccccc3OC(F)(F)F)cn2c1C(=O)c1c(F)cccc1F`, half-maximal inhibition in experiment [1] (IC50) required 2170 nM.

Regarding `Nc1nc2ccc(C(=O)c3c(F)cccc3F)cn2c1C(=O)c1c(F)cccc1Cl`, the IC50 is 102 nM in experiment [1], 827 nM in experiment [2] and 239 nM in experiment [3].

On to `Nc1nc2ccc(C(=O)c3c(Cl)cccc3Cl)cn2c1C(=O)c1c(F)cc(O)cc1F`, for which, in experiment [1], 52 nM corresponded to half-maximal inhibition (IC50).

`Nc1nc2ccc(C(=O)c3c(Cl)cccc3Cl)cn2c1C(=O)c1c(F)cc(C(=O)O)cc1F`: the results for the IC50 in experiment [1], in experiment [2] and in experiment [3] were 95 nM, 2590 nM and 328 nM, respectively.

For the compound `Nc1nc2ccc(C(=O)c3c(F)cccc3F)cn2c1C(=O)c1ccc(Cl)cc1`, the IC50 in experiment [1] was 1710 nM.

Regarding `CN1CCN(CCOc2cc(F)c(C(=O)c3c(N)nc4ccc(C(=O)c5c(Cl)cccc5Cl)cn34)c(F)c2)CC1`, the midpoint of inhibition in experiment [1], the IC50, lay at 812 nM.

Turning to `COc1ccccc1C(=O)c1c(N)nc2ccc(C(=O)c3c(F)cccc3F)cn12`, the IC50 came to 68 nM in experiment [1], 1970 nM in experiment [2] and 475 nM in experiment [3].

In the case of `Nc1nc2ccc(C(=O)c3ccccc3C(F)(F)F)cn2c1C(=O)c1c(F)cccc1F`, in experiment [1], the midpoint of inhibition, the IC50, lay at 1070 nM.

As for `Nc1nc2ccc(C(=O)c3c(F)cccc3F)cn2c1C(=S)c1c(F)cccc1F`, the IC50 in experiment [1] amounted to 26 nM; in experiment [2], 786 nM; in experiment [3], 105 nM.
